{
  "source": "patent US10472394B2",
  "about": "“Cyclosporine analogue mixtures and their use as immunomodulating agents” (Aurinia Pharmaceuticals Inc., priority 2001, dated 2019)",
  "key": {"[1]": {"system": "calcineurin phosphatase activity", "assay": "calcineurin (CN) inhibition assay", "type": "biochemical", "conditions": "FIG. 11; ISATX247 isomer mixture", "excerpt": "The use of cyclosporine derivatives, a class of cyclic polypeptides produced by the fungus Tolypocladium inflatum Gams, is increasing in immunosuppressive therapy due to their preferential effects on T-cell mediated reactions. […] This action is primarily mediated through cyclosporine A-induced inhibition of calcineurin, a phosphatase enzyme found in the cytoplasm of cells (Schreiber and Crabtree, 1992)."}, "Transplanted Rat Hearts": {"system": "Transplanted Rat Hearts", "assay": "rat heart transplant model (heterotopic, Wistar Furth to Lewis)", "type": "in vivo", "excerpt": "If graft dysfunction was noted during the 30-day post-transplantation period, the animal was sacrificed. If the animal survived longer than 30 days post-transplantation, the test and control articles were discontinued and the animal was allowed to continue until graft dysfunction or up to 100 days post-transplantation."}, "Mouse Islet Allografts": {"system": "Mouse Islet Allografts", "assay": "islet cell allotransplantation in diabetic mice", "excerpt": "Blood glucose was monitored daily until the time of graft failure, as defined by a glucose level greater than 17 mmol/L on two consecutive days."}, "[2]": {"system": "collagen-induced arthritis", "assay": "collagen-induced arthritis model", "type": "in vivo, mouse", "description": "Male DBA/1 Lac J mice, kept under virus antibody free conditions, were immunized subcutaneously at 8 to 10 weeks of age with 100 microgram of chick type II collagen, emulsified in Freund's complete adjuvant. […] Animals assigned to the treatment protocol (12/group) were dosed starting on the day of disease onset (˜Day 28) until sacrifice on Day 38.\nEvaluated parameters included mortality, serum creatinine, histology, and outcome assessments, such as clinical scoring (visual), hind paw swelling, histological scoring, erosion scoring, and immunohistochemistry.\nErosion scoring was done in a blinded manner by examining sagittal sections of the proximal interphalangeal (PIP) joint of the middle digit for the presence or absence of erosions (defined as demarcated defects in cartilage or bone filled with inflammatory tissue). This approach allowed for comparisons of the same joint."}, "[3]": {"system": "antigen-induced arthritis", "assay": "antigen-induced arthritis model", "type": "in vivo, rabbit", "description": "New Zealand White rabbits, maintained under specific pathogen free conditions, were immunized with 10 mg of ovalbumin in saline emulsified with Freund's complete adjuvant that was given intramuscularly and subcutaneously into several sites in the nape of the neck. Fourteen days later, all animals started receiving 2 daily intra-articular injections of 5 mg ovalbumin and 65 ng of human recombinant transforming growth factor 2 in saline.\nAnimals assigned to the treatment protocol (8/group) were dosed starting on the day of disease onset (˜Day 28) until sacrifice on Day 42.\nEvaluated parameters included mortality, body weight, serum creatinine, histology, and outcome assessments such as knee joint swelling, synovial fluid counts, gross postmortem analysis, and histology."}, "[4]": {"assay": "pharmacokinetics in the rabbit model (i.v.)", "type": "in vivo", "conditions": "for Area under the curve, mean ± SD / Cmax, mean ± SD: 10 mg/kg/day i.v."}, "lymphocyte proliferation": {"system": "lymphocyte proliferation", "assay": "whole blood assay: lymphocyte proliferation", "type": "cell-based, cynomolgous monkeys", "conditions": "mitogen stimulated", "description": "(§1) Lymphocyte proliferation was assessed by tritium-labeled thymidine incorporation and by flow-cytometric analysis of expression of proliferating cell nuclear antigen (PCNA) on cells in SG2M phase. Flow cytometry was also used to assess production of intracellular cytokines by T cells and expression of T lymphocyte activation antigens."}, "[5]": {"system": "production of intracellular cytokines by T cells", "assay": "whole blood assay: intracellular cytokine production by T cells", "type": "cell-based, cynomolgous monkeys", "conditions": "mitogen stimulated", "description": "as §1"}, "[6]": {"system": "T lymphocyte activation antigens", "assay": "whole blood assay: expression of T lymphocyte activation antigens", "type": "cell-based, cynomolgous monkeys", "conditions": "mitogen stimulated", "description": "as §1"}, "[7]": {"assay": "repeated-dose oral toxicity studies", "type": "in vivo, rats, dogs, and primates"}, "[8]": {"system": "bacterial reverse mutation", "assay": "in vitro bacterial reverse mutation assay", "type": "cell-based", "excerpt": "(§2) No carcinogenicity studies have been completed to date."}, "chromosome aberration": {"system": "chromosome aberration", "assay": "in vitro chromosome aberration assay", "type": "cell-based", "excerpt": "as §2"}, "micronucleus": {"system": "micronucleus", "assay": "in vivo rat micronucleus assay", "excerpt": "as §2"}, "[9]": {"assay": "reproductive toxicity studies", "type": "in vivo, pregnant rats and rabbits", "excerpt": "as §2"}, "[10]": {"assay": "30-day toxicokinetic/toxicity study in the rabbit model"}},
  "data": [
    {"smiles": "C=C/C=C/C[C@@H](C)[C@@H](O)[C@H]1C(=O)N[C@@H](CC)C(=O)N(C)CC(=O)N(C)[C@@H](CC(C)C)C(=O)N[C@@H](C(C)C)C(=O)N(C)[C@@H](CC(C)C)C(=O)N[C@@H](C)C(=O)N[C@H](C)C(=O)N(C)[C@@H](CC(C)C)C(=O)N(C)[C@@H](CC(C)C)C(=O)N(C)[C@@H](C(C)C)C(=O)N1C", "note": "[ISATX247]", "values": [
      {"measurement": "potency of inhibition of calcineurin phosphatase activity compared to cyclosporine A (as determined by IC50)", "setting": "[1]", "value": "≤ 3", "unit": "fold"},
      {"measurement": "increase of survival time over Cyclosporine A", "setting": "Transplanted Rat Hearts; 1.75 mg/kg/day", "value": "approximately 3 fold"},
      {"measurement": "graft function after discontinuation of dosing", "setting": "Transplanted Rat Hearts; 100 days post-transplant (70 days post discontinuation of dosing)", "value": "still had functioning grafts at 100 days post-transplant"},
      {"measurement": "Mean Survival", "setting": "Mouse Islet Allografts; 1.75 mg/kg/day i.p.", "value": 18.7},
      {"measurement": "Mean Survival", "setting": "Mouse Islet Allografts; 10 mg/kg/day i.p.", "value": 19.2},
      {"measurement": "Mean Survival", "setting": "Mouse Islet Allografts; 25 mg/kg/day i.p.", "value": 46.4},
      {"measurement": "toxicity compared with cyclosporine A as the dose level increased", "setting": "Mouse Islet Allografts; especially apparent at 25 mg/kg/day", "value": "less toxic than cyclosporine A"},
      {"measurement": "negative erosion scores compared to vehicle group", "setting": "[2]; 250 μg/mouse i.p.", "value": "higher negative erosion scores"},
      {"measurement": "development of joint erosions (PIP joints)", "setting": "[2]; 500 μg/mouse", "value": "significantly prevent"},
      {"measurement": "negative erosion scores compared to vehicle group", "setting": "[2]; 500 μg/mouse i.p.", "value": "significantly higher"},
      {"measurement": "synovial fluid counts", "setting": "[3]; prevention protocol", "value": "significant reductions"},
      {"measurement": "synovial histopathological scores compared to vehicle control", "setting": "[3]; prevention protocol, after 28 days of therapy, s.c.", "value": "significant decrease"},
      {"measurement": "macroscopic arthritis score", "setting": "[3]; rabbit, in vivo", "value": "significant reduction"},
      {"measurement": "potency compared with cyclosporine A in treatment and prevention of arthritis", "setting": "[3]; rabbit, in vivo", "value": "equivalent or potentially more potent than cyclosporine A"},
      {"measurement": "synovial histopathological scores of animals with established arthritis compared to vehicle controls", "setting": "[3]; treatment protocol, 14 days of treatment", "value": "Significant amelioration"},
      {"measurement": "pharmacokinetic parameters in female rabbits compared with male rabbits", "setting": "[4]; 10 mg/kg/day, exception: maximum concentration on Day 7", "value": "not significantly different"},
      {"measurement": "pharmacokinetic parameters compared with cyclosporine A", "setting": "[4]; male rabbits, 10 mg/kg/day", "value": "no statistically significantly differences"},
      {"measurement": "Area under the curve, mean ± SD", "setting": "[4]; male rabbits, Day 1", "value": "5.659 ± 1.309", "unit": "µg·h/mL"},
      {"measurement": "Cmax, mean ± SD", "setting": "[4]; male rabbits, Day 1", "value": "1915 ± 149", "unit": "µg/L"},
      {"measurement": "Area under the curve, mean ± SD", "setting": "[4]; male rabbits, Day 7", "value": "5.697 ± 1.373", "unit": "µg·h/mL"},
      {"measurement": "Cmax, mean ± SD", "setting": "[4]; male rabbits, Day 7", "value": "1959 ± 470", "unit": "µg/L"},
      {"measurement": "EC50, 3H-thymidine uptake", "setting": "lymphocyte proliferation", "value": 160.54, "unit": "ng/mL"},
      {"measurement": "EC50, PCNA expression", "setting": "lymphocyte proliferation; flow cytometry", "value": 197.72, "unit": "ng/mL"},
      {"measurement": "EC50, IFN-production", "setting": "[5]", "value": 102.67, "unit": "ng/mL"},
      {"measurement": "EC50, IL-2 production", "setting": "[5]", "value": 103.35, "unit": "ng/mL"},
      {"measurement": "EC50, TNF-production", "setting": "[5]", "value": 90.58, "unit": "ng/mL"},
      {"measurement": "EC50, CD 11a expression", "setting": "[6]", "value": 204.40, "unit": "ng/mL"},
      {"measurement": "EC50, CD 25 expression", "setting": "[6]", "value": 121.00, "unit": "ng/mL"},
      {"measurement": "EC50, CD 71 expression", "setting": "[6]", "value": 149.84, "unit": "ng/mL"},
      {"measurement": "EC50, CD 95 expression", "setting": "[6]", "value": 129.98, "unit": "ng/mL"},
      {"measurement": "EC50, CD 154 expression", "setting": "[6]", "value": 160.87, "unit": "ng/mL"},
      {"measurement": "only toxicological effect noted in all species", "setting": "[7]", "value": "diarrhea/loose feces"},
      {"measurement": "tolerability", "setting": "[7]; rats, dogs, primates", "value": "well-tolerated"},
      {"measurement": "mutagenic activity", "setting": "[8]", "value": "does not exhibit mutagenic activity"},
      {"measurement": "mutagenic activity", "setting": "chromosome aberration", "value": "does not exhibit mutagenic activity"},
      {"measurement": "mutagenic activity", "setting": "micronucleus", "value": "does not exhibit mutagenic activity"},
      {"measurement": "embryotoxicity", "setting": "[9]; at doses that resulted in maternal toxicity", "value": "corresponding embryotoxicity was observed"},
      {"measurement": "treatment-related malformations or alterations", "setting": "[9]; pregnant rats and rabbits", "value": "no treatment-related malformations or alterations"},
      {"measurement": "examination of organs", "setting": "[10]; 5 mg/kg", "value": "no significant abnormalities"},
      {"measurement": "examination of organs", "setting": "[10]; 10 mg/kg", "value": "no significant abnormalities"},
      {"measurement": "increase in serum creatinine levels", "setting": "[10]; 15 mg/kg/day", "value": "did not result in any significant increase"},
      {"measurement": "examination of organs", "setting": "[10]; 3 female rabbits that completed the study, 15 mg/kg", "value": "No changes"},
      {"measurement": "Percent Change in Serum Creatine Levels Over Baseline", "setting": "[10]; male rabbits, 10 mg/kg, Day 15", "value": "+1%"},
      {"measurement": "Percent Change in Serum Creatine Levels Over Baseline", "setting": "[10]; male rabbits, 10 mg/kg, Day 30", "value": "+10%"},
      {"measurement": "examination of organs: spermatogenesis", "setting": "[10]; male rabbits, 15 mg/kg", "value": "a decrease in spermatogenesis"},
      {"measurement": "Percent Change in Serum Creatine Levels Over Baseline", "setting": "[10]; male rabbits, 15 mg/kg, Day 15", "value": "−19", "unit": "%"},
      {"measurement": "Percent Change in Serum Creatine Levels Over Baseline", "setting": "[10]; male rabbits, 15 mg/kg, Day 30", "value": "−11", "unit": "%"},
      {"measurement": "hematological parameters", "setting": "[10]; rabbit, in vivo", "value": "No significant changes"}
    ]}
  ]
}
